Experimental data from PMC6274227, “Interactions of Bovine Serum Albumin with Anti-Cancer Compounds Using a ProteOn XPR36 Array Biosensor and Molecular Docking” (Molecules, 2016).
Each block holds one molecule with its values, some of them ahead of it.

What was measured:
[1] = molecular target: T1, bovine serum albumin (BSA) (Bos taurus, UniProt P02769); test: ProteOn XPR36 SPR array biosensor binding to immobilized BSA; settings: for binding to the immobilized BSA (sensorgram): SPR, PBS-T buffer pH 7.4, 25 °C; for koff / kon: bovine, pH 7.4
T1 sequence (P02769 25-607): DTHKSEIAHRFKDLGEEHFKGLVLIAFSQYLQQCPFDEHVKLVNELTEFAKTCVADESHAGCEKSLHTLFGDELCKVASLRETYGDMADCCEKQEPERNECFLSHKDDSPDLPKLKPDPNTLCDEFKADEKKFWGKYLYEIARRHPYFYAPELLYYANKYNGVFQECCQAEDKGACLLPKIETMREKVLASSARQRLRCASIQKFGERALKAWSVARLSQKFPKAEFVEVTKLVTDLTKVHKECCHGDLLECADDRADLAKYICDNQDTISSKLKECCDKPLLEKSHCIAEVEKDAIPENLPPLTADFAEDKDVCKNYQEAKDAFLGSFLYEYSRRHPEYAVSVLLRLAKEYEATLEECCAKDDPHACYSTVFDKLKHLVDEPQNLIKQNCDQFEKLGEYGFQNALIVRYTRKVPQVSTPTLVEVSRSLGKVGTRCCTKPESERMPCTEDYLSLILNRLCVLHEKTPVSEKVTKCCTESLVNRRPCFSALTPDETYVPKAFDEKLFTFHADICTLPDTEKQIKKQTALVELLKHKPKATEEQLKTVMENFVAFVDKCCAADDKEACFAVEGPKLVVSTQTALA
Experimental: The GLH sensor chip, consisting of glass prisms coated with gold and an alginate-based layer, was an ideal choice for examining protein-small molecule interactions. The chip was initialized with 50% glycerol for several minutes prior to use.
Following initialization, the GLH sensor chip was washed with 0.5% SDS, 50 mM NaOH and 100 mM HCl, respectively, for 1 min each, at a flow rate of 100 µL/min. PBS-T buffer (10 mM sodium phosphate, 150 mM NaCl, and 0.005% Tween 20, pH 7.4) was then injected in three pulses for baseline stabilization.
One of the six channels was activated with a mixture of EDC (40 mM) and sulfo-NHS (10 mM) in the horizontal direction for 3 min, at a flow rate of 30 µL/min. BSA (2 mg/mL) was diluted to 300 nM in 10 mM sodium acetate (pH 4.0) and immobilized on the channel for 5 min, at a flow rate of 30 µL/min. Next, the channel was blocked by injection of 1 M ethanolamine-HCl for 5 min. […] Baseline equilibration was performed by multiple washes with running buffer (PBS-T) across the chip surface for 1 h.
Each compound was tested at six concentrations using a two-fold dilution series. Gradient concentrations of each compound were simultaneously injected over the BSA-immobilized surface at a flow rate of 30 µL/min in the vertical direction, where the association and dissociation times were 80 s and 60 s, respectively. All interaction analyses were performed at 25 °C.
All sensorgrams for protein binding were collected, processed, and analyzed using the ProteOn Manager software. We utilized two types of reference sources, the standard blank buffer reference, and interspot reference, which was the average response before and after each interaction spot to correct for nonspecific binding. The target protein was washed off in the dissociation phase, which caused baseline drift, although real-time injection of a blank reference can completely correct this baseline drift by subtracting artifacts in real time. The dual references were both subtracted from the interaction spot data to correct for any bulk shifts due to baseline drift and nonspecific binding. Finally, the data for each compound collected over the same target protein were globally fit to a Langmuir 1:1 binding model with a global ka and kd, where ka is the association rate constant and kd is the dissociation rate constant for the protein-small molecule binding. The ratio of (kd/ka) indicated the value for the equilibrium dissociation constant (KD).

[2] = molecular target: T1, bovine serum albumin (BSA); design: I (residues 1–183), II (184–376), III (377–583); purchased Sigma-Aldrich; method as in doi:10.1016/j.molstruc.2008.01.013; settings: under physiological conditions; cited from earlier work

Molecule: C[C@@H]1O[C@@H](O[C@@H]2[C@@H](O)[C@H](OCCc3ccc(O)c(O)c3)O[C@H](CO)[C@H]2OC(=O)/C=C/c2ccc(O)c(O)c2)[C@H](O)[C@H](O)[C@H]1O [acteoside, Acteoside]
Kd [1]: 740 ± 360 µM
binding to the immobilized BSA (sensorgram) [1]: able to reversibly bind
koff [1]: 0.09 ± 0.02 s⁻¹
kon [1]: 149 M⁻¹ s⁻¹

Molecule: O=C(/C=C/c1ccc(O)c2c1[C@H](C(=O)O[C@H](Cc1ccc(O)c(O)c1)C(=O)O)[C@@H](c1ccc(O)c(O)c1)O2)O[C@H](Cc1ccc(O)c(O)c1)C(=O)O [salvianolic acid B, Salvianolic acid B]
Kd [1]: 230 ± 70 µM
binding to the immobilized BSA (sensorgram) [1]: able to reversibly bind
koff [1]: 0.59 ± 0.24 s⁻¹
kon [1]: 2500 M⁻¹ s⁻¹

Molecule: Echinacoside
binding to the immobilized BSA (sensorgram) [1]: able to reversibly bind

Further lines, with some results ahead:

binding to the immobilized BSA (sensorgram) [1]: able to reversibly bind
koff [1]: 0.73 ± 0.03 s⁻¹
kon [1]: 2 M⁻¹ s⁻¹
difference in affinity for BSA between weakest and strongest binding compound ([1]; doxorubicin (weakest) versus salvianolic acid B (strongest)): greater than 1000 fold
Molecule: COc1cccc2c1C(=O)c1c(O)c3c(c(O)c1C2=O)C[C@@](O)(C(=O)CO)C[C@@H]3O[C@H]1C[C@H](N)[C@H](O)[C@H](C)O1 [doxorubicin, Doxorubicin, reference compound]

Kd [1]: 510 ± 250 µM
Molecule: O=C(O)c1cc(O)c(O)c(O)c1 [gallic acid, Gallic acid]

binding to the immobilized BSA (sensorgram) [1]: no such binding
Molecule: OC[C@H]1O[C@@H](OCCc2ccc(O)cc2)[C@H](O)[C@@H](O)[C@@H]1O [salidroside, Salidroside]
binding to BSA via spectroscopic investigation [2]: could bind to BSA

Kd [1]: 2560 ± 430 µM
binding to the immobilized BSA (sensorgram) [1]: able to reversibly bind
koff [1]: 1.96 ± 0.2 s⁻¹
kon [1]: 784 M⁻¹ s⁻¹
Molecule: CC[C@]1(O)C[C@H]2CN(CCc3c([nH]c4ccccc34)[C@@](C(=O)OC)(c3cc4c(cc3OC)N(C=O)[C@H]3[C@@](O)(C(=O)OC)[C@H](OC(C)=O)[C@]5(CC)C=CCN6CC[C@]43[C@@H]65)C2)C1 [vincristine, Vincristine, reference compound]
